# Values of other authors as cited in US20090312435A1, “SUBSTITUTED PHENETHYLAMINES WITH SEROTONINERGIC AND/OR NOREPINEPHRINERGIC ACTIVITY” (AUSPEX PHARMACEUTICALS, INC, priority 2006, published 2009).
# “And” between values parts separate entries of the source, which are not always exact repeats. Equal entries are not always repeated. Where two headings read alike, the source gives them in different places.
half-life (T1/2) (in humans),"half-life (T1/2) (human, in vivo)",SMILES
~5 h and 3 to 7 h,–,COc1ccc(C(CN(C)C)C2(O)CCCCC2)cc1 (racemic) [venlafaxine]
–,~11 h,CN(C)CC(c1ccc(O)cc1)C1(O)CCCCC1 (centres unmarked) [O-desmethylvenlafaxine]
